These are literature values, as cited in publication PMC11270681, “Synthesis and Systematic Investigation of Lepidiline A and Its Gold(I), Silver(I), and Copper(I) Complexes Using In Vitro Cancer Models and Multipotent Stem Cells” (ACS Omega, 2024).

The structures appear in SMILES notation.

In one series the test system is HL-60 leukemia line. The arrangement: method as in PMID 34808062. The following applies: cited from earlier work.
Another series relates to MCF-7 breast cancer line. On the set-up: method as in PMID 34808062. The following applies: cited from earlier work.

In general, IC50 refers to the point on the concentration scale where inhibition reaches its midpoint. Regarding `COc1cccc(C[n+]2cn(Cc3ccccc3)c(C)c2C)c1` [lepidiline C], the values for the half-maximal inhibitory concentration (IC50) with HL-60 leukemia line and in the series with MCF-7 breast cancer line were about 30 µM and 75 µM, respectively.
